Converted amounts (≈) assume the structure as drawn. Where two headings read alike, the source gives them in different places.
Key:
Test in all cases: Broth microdilution MIC
[1] = tested on: S. aureus ATCC 29213; format: cell-based, Staphylococcus aureus; details: for MIC: Staphylococcus aureus, ATCC29213, read-out: Minimal Inhibitory Concentration, S. aureus ATCC 29213
Description: (§1) The process for preparing susceptibility test medium are the following steps: • a. Preparing Mueller Hinton Broth II medium by adding 22 grams powdered media to 1.0 liter distilled water; • b. Autoclaving (121° C., 15 psi, 15 minutes) and cooling the medium; • c. Adding Oxyrase® up to about 10% final volume and keeping at 35-37° C. in an incubator for 30 minutes; • d. Adding about 50 μL to each well of a 96 well microtiter plate; • e. Weighing drug and adding broth to drug to bring up to about (standard 128 μg/ml); • f. Adding 50 μL of the drug to the first column of the titer plate; • g. Diluting by two-fold serial diluting across or down the plate. • h. Preparing a Prompt™ inoculum at 10^8 CFU/ml; • i. Diluting inoculum 1:100 in the broth at […] in 9.9 ml (1:100) is 10^6 colony forming units (CFU) forming the adjusted inoculum; • j. Adding 50 μL of the adjusted inoculum to the wells of the microtiter plate; • k. Incubating the plates at 35-37° C. for 18-22 hours; and • l. Reading, with the unaided eye, the MIC.
(§2) The in vitro activities of tigecycline and control antibiotics were determined by the broth microdilution method as recommended by the NCCLS. (National Committee for Clinical Laboratory Standards, 2003. Methods for Dilution Antimicrobial Susceptibility Tests for Bacteria That Grow Aerobically; Approved Standards: M7-A6, Sixth ed, vol. 23., National Committee for Clinical Laboratory Standards Wayne, Pa.) was used for the standard procedures. MBH with 5% lysed horse blood was used for testing S. pneumoniae and Haemophilus Test Medium was used for testing H. influenzae. Oxyrase® (Oxyrase Inc, Mansfield, Ohio) was used according to the manufacturer's instructions by adding 1 ml of Oxyrase® to 50 ml of media. Media age studies were performed by preparing MHB in multiple flasks, then storing the media under various conditions. MICs were usually performed in duplicate on each day of testing. Storage under anaerobic conditions was conducted in an anaerobic chamber (MACS MG 1000, Don Whitley Scientific LTD). The pH of the media was determined by pH meter (Corning 430). A comparison of the in vitro activity of tigecycline by agar and broth dilution methodolgies with and without Oxyrase® against clinical isolates is shown in Table 1.

[2] = tested on: S. aureus ATCC 25923; format: cell-based, Staphylococcus aureus; details: Staphylococcus aureus, ATCC25923, read-out: Minimal Inhibitory Concentration, S. aureus ATCC 25923
Description: as §1, §2

[3] = tested on: H. influenzae ATCC 49247; format: cell-based
Description: as §1
as §2, with “MBH with 5% lysed horse blood was used for testing S. pneumoniae and Haemophilus Test Medium was used for testing H. influenzae.” left out

[4] = Table 8, S. aureus ATCC 29213, Mueller Hinton Broth + Oxyrase, n = 240
[5] = Table 8, S. aureus ATCC 29213, Mueller Hinton Broth, n = 320
[6] = Table 9, S. aureus ATCC 29213, Mueller Hinton Broth + Oxyrase, n = 29
[7] = Table 9, S. aureus ATCC 29213, Mueller Hinton Broth, n = 131
[8] = Table 8, Mueller Hinton Broth + Oxyrase, n = 240
[9] = Table 8, Mueller Hinton Broth, n = 210

With `CN(C)c1cc(NC(=O)CNC(C)(C)C)c(O)c2c1C[C@H]1C[C@H]3[C@H](N(C)C)C(O)=C(C(N)=O)C(=O)[C@@]3(O)C(O)=C1C2=O` [Tigecycline, tigecycline] the MIC ([1]; MHB II + 0.05% L-ascorbic Acid) was 2 µg/mL, the MIC ([1]; MHB II + 0.05% L-cysteine) was 0.25 µg/mL and the MIC ([1]; MHB II + 0.05% Thioglycolate) was 0.25 µg/mL. The MIC ([1]; MHB II + 2% Oxyrase) was 0.12 µg/mL, the MIC ([1]; Mueller Hinton Broth II (Fresh)) was 0.25 µg/mL (≈ 0.427 µM) and the MIC ([1]; Mueller Hinton Broth II (MHB II)) was 0.25 to 0.5 µg/mL (≈ 0.427 to 0.854 µM). The MIC ([1]; media Aged Anaerobic, N = 4) was 0.06 to 0.12 µg/mL (≈ 0.102 to 0.205 µM), the “Number of Occurrences of MIC 0.06 ug/ml” value [1, 4] was 14 and the “Number of Occurrences of MIC 0.12 ug/ml” value [1, 4] was 203. For the same compound, the “Number of Occurrences of MIC 0.25 ug/ml” value [1, 4] was 22, the “Number of Occurrences of MIC 0.5 ug/ml” value [1, 4] was 1 and the “Number of Occurrences of MIC 0.12 ug/ml” value [1, 5] was 1. The “Number of Occurrences of MIC 0.25 ug/ml” value [1, 5] was 219, the “Number of Occurrences of MIC 0.5 ug/ml” value [1, 5] was 29 and the “Number of Occurrences of MIC 1 ug/ml” value [1, 5] was 62. For the same compound, the “Number of Occurrences of MIC 2 ug/ml” value [1, 5] was 9, the “Number of Occurrences of MIC 0.06 ug/ml” value [1, 6] was 2 and the “Number of Occurrences of MIC 0.12 ug/ml” value [1, 6] was 15. The “Number of Occurrences of MIC 0.25 ug/ml” value [1, 6] was 12, the “Number of Occurrences of MIC 0.06 ug/ml” value [1, 7] was 1 and the “Number of Occurrences of MIC 0.12 ug/ml” value [1, 7] was 27. For the same compound, the “Number of Occurrences of MIC 0.25 ug/ml” value [1, 7] was 78, the “Number of Occurrences of MIC 0.5 ug/ml” value [1, 7] was 25 and the MIC ([2]; 2% Oxyrase) was 0.06 µg/mL (≈ 0.102 µM). For the same compound, the MIC ([2]; MHB II + 0.05% Sodium Pyruvate) was 0.25 µg/mL, the MIC ([2]; No Oxyrase) was 0.25 µg/mL (≈ 0.427 µM) and the “Number of Occurrences of MIC 0.008 ug/ml” value [3, 8] was 2. The “Number of Occurrences of MIC 0.016 ug/ml” value [3, 8] was 1, the “Number of Occurrences of MIC 0.06 ug/ml” value [3, 8] was 4 and the “Number of Occurrences of MIC 0.12 ug/ml” value [3, 8] was 156. The “Number of Occurrences of MIC 0.25 ug/ml” value [3, 8] was 75, the “Number of Occurrences of MIC 0.5 ug/ml” value [3, 8] was 2 and the “Number of Occurrences of MIC 0.12 ug/ml” value [3, 9] was 13. The “Number of Occurrences of MIC 0.25 ug/ml” value [3, 9] was 156, the “Number of Occurrences of MIC 0.5 ug/ml” value [3, 9] was 25 and the “Number of Occurrences of MIC 1 ug/ml” value [3, 9] was 10. For the same compound, the “Number of Occurrences of MIC 2 ug/ml” value [3, 9] was 6.

Reference: patent US20050130252A1, “Stabilized susceptibility tests of aerobic pathogens” (Wyeth Holdings Corporation, priority 2003, published 2005)
